Results taken from publication PMC7260718, “Novel routes towards bioplastics from plants: elucidation of the methylperillate biosynthesis pathway from Salvia dorisiana trichomes” (Journal of Experimental Botany, 2020).
One block for each compound: values may come before it.

Assays:
[1] = biological target: T1, SdLiS (Salvia dorisiana, UniProt A0A6G5RUG7); test: in vitro terpene synthase assay, GC-MS; assay type: cell-based; details: product linalool; conditions by reference to earlier study
T1 construct: gene LiS; plastid targeting signal removed, pCDF-duet, E. coli
T1 sequence (A0A6G5RUG7 55-582 limits assumed): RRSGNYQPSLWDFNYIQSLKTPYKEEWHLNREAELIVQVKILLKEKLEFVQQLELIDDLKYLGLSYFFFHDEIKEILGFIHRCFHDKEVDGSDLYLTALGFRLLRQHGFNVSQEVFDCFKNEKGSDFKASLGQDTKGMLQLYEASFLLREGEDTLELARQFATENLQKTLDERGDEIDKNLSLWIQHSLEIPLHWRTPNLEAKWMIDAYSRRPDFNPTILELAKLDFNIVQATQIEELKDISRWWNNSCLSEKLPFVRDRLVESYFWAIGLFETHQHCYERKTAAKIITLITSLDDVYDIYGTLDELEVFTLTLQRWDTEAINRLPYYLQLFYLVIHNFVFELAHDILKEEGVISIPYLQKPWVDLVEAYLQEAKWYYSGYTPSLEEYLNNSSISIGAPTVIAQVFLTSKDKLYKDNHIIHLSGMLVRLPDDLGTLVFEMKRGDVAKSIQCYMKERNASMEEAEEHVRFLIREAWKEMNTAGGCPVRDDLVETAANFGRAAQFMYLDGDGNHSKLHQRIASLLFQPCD

[2] = biological target: T2, SdSaS (Salvia dorisiana, UniProt A0A6G5RTE6); test: in vitro terpene synthase assay, GC-MS; assay type: cell-based; details: product sabinene; conditions by reference to earlier study
T2 construct: gene SaS; plastid targeting signal removed, pCDF-duet, E. coli
T2 sequence (A0A6G5RTE6 1-538): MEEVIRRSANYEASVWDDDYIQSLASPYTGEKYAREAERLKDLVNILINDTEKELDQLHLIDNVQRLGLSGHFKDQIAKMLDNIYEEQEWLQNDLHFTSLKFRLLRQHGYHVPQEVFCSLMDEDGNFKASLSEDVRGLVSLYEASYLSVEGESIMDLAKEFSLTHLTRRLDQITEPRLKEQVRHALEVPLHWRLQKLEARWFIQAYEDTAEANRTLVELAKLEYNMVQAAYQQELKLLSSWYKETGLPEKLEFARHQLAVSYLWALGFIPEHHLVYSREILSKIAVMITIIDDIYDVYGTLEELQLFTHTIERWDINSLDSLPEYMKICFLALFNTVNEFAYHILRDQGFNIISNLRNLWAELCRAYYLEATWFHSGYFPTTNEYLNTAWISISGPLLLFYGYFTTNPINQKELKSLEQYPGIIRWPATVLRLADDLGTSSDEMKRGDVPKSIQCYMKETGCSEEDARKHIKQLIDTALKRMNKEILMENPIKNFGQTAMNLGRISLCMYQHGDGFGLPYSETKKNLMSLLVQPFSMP

[3] = biological target: T3, SdPCS (Salvia dorisiana, UniProt A0A6G5RV47); test: in vitro terpene synthase assay, GC-MS; assay type: cell-based; details: products alpha-pinene and camphene; conditions by reference to earlier study
T3 construct: gene PCS; plastid targeting signal removed, pCDF-duet, E. coli
T3 sequence (A0A6G5RV47 52-589): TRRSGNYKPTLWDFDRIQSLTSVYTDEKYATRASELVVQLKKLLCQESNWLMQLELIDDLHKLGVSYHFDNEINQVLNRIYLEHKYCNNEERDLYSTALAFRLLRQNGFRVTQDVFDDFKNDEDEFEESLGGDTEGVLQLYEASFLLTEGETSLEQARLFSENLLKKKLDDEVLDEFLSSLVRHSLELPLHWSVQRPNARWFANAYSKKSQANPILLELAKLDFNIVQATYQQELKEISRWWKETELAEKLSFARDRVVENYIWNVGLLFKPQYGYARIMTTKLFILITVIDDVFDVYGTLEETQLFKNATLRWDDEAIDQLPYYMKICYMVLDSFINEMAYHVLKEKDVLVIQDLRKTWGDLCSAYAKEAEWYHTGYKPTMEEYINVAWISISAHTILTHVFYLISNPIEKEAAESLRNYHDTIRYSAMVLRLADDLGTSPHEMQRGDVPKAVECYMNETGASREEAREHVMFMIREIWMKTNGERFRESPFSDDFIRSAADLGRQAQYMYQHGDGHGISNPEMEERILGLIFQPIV

[4] = biological target: T4, SdEuS (Salvia dorisiana, UniProt A0A6G5RUA2); test: in vitro terpene synthase assay, GC-MS; assay type: cell-based; details: product eucalyptol; conditions by reference to earlier study
T4 construct: gene EuS; plastid targeting signal removed, pCDF-duet, E. coli
T4 sequence (A0A6G5RUA2 55-578): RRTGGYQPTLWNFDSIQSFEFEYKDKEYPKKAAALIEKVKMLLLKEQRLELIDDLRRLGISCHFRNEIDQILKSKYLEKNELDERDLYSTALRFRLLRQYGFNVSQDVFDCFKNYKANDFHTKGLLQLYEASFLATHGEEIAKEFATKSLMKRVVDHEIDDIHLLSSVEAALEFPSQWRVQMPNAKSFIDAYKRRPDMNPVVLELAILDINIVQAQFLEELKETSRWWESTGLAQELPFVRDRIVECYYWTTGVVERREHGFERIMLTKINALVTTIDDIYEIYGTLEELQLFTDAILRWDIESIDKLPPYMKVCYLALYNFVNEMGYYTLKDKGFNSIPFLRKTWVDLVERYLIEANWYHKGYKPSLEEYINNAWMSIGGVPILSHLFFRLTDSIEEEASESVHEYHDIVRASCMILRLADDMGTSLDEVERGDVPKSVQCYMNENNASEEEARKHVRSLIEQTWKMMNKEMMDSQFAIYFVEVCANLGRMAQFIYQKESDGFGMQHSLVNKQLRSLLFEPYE

[5] = biological target: T5, SdPS (Salvia dorisiana, UniProt A0A6G5RTD3); test: in vitro terpene synthase assay, GC-MS; assay type: cell-based; details: product beta-pinene; conditions by reference to earlier study
T5 construct: gene PS; plastid targeting signal removed, pCDF-duet, E. coli
T5 sequence (A0A6G5RTD3 60-600): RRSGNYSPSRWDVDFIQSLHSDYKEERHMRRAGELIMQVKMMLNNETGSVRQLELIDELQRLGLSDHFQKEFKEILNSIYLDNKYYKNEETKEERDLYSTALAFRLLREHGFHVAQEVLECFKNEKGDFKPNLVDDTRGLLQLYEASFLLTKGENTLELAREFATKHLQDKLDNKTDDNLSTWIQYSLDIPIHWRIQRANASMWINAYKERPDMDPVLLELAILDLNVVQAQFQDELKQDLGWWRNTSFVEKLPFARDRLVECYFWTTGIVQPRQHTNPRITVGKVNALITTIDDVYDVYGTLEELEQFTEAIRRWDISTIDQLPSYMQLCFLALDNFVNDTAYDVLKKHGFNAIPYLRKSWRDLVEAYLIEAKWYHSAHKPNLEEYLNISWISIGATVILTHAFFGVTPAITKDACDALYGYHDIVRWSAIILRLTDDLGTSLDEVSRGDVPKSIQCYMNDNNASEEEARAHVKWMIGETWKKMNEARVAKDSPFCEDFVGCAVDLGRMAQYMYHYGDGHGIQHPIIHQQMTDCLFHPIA

[6] = biological target: T6, SdL7H (Salvia dorisiana, UniProt A0A6G5RTT4); test: GC-MS of perillyl alcohol in culture extract; assay type: cell-based; details: yeast co-expressing limonene synthase, 30 °C, 96 h; also N. benthamiana with SdLS
T6 construct: gene L7H; expressed in Saccharomyces cerevisiae (limonene-producing strain Sc-PftLS) from pTEF plasmid; also in Nicotiana benthamiana
T6 sequence (A0A6G5RTT4 1-494): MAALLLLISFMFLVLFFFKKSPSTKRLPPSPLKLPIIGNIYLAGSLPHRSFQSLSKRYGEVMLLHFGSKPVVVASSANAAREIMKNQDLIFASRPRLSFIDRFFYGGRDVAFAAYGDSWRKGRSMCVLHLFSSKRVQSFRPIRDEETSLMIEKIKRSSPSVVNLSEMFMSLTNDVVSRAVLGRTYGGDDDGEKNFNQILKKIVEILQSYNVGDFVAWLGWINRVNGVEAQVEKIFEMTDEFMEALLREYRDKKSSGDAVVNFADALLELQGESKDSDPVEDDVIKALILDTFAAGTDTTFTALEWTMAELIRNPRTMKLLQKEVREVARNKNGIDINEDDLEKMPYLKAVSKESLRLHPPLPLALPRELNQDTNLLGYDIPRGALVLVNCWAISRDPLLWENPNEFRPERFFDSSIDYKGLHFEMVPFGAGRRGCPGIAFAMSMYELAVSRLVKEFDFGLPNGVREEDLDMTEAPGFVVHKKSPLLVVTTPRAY

[7] = biological target: T7, SdPAOMT (Salvia dorisiana, UniProt A0A6G5RV57); test: GC-MS of methyl ester product; assay type: biochemical; details: E. coli cell-free extract; 1 mM substrate, 1.28 mM SAM (from stocks), Tris-HCl pH 7.0, room temperature, 1 h
T7 construct: gene PAOMT; full length, pCDF-duet, E. coli BL21(DE3) cell-free extract
T7 sequence (A0A6G5RV57 1-359): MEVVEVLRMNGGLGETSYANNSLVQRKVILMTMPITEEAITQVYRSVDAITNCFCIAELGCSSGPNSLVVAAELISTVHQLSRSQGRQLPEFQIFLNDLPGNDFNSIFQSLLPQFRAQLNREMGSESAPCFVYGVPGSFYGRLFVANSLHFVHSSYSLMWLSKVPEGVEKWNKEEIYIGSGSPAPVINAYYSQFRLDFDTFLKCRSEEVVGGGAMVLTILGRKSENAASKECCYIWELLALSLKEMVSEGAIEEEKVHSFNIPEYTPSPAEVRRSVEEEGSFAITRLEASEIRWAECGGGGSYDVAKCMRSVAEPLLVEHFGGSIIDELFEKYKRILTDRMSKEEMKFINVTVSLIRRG

[8] = biological target: T8, SdOMT9 (Salvia dorisiana, UniProt A0A6G5RTF7); test: headspace GC-MS of methylperillate; details: N. benthamiana leaves co-infiltrated with perillic acid; minor activity
T8 construct: gene OMT9; transient expression in Nicotiana benthamiana leaves
T8 sequence (A0A6G5RTF7 1-344): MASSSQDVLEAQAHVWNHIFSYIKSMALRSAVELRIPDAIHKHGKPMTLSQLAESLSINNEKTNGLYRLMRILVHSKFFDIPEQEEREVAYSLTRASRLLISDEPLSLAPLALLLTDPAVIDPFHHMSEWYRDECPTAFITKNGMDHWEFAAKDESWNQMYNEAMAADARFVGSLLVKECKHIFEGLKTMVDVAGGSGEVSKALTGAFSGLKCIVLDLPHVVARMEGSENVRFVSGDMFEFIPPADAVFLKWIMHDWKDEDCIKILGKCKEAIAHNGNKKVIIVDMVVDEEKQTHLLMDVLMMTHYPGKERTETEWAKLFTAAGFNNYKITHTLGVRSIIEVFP

[9] = biological target: T9, SdOMT4 (Salvia dorisiana, UniProt A0A6G5RUB3); test: headspace GC-MS of methylperillate; details: N. benthamiana leaves co-infiltrated with perillic acid; minor activity
T9 construct: gene OMT4; transient expression in Nicotiana benthamiana leaves
T9 sequence (A0A6G5RUB3 1-349): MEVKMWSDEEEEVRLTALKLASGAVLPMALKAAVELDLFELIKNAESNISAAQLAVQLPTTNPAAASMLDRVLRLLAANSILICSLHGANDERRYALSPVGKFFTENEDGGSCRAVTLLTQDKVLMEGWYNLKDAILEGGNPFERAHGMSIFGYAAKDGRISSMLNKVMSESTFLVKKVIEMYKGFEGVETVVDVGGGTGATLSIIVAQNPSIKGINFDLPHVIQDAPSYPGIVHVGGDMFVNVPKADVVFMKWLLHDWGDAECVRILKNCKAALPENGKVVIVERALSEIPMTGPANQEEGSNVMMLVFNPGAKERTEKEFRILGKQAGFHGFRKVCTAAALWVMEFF

[10] = biological target: T10, SdPOHDH (Salvia dorisiana, UniProt A0A6G5RUH8); test: LC-MS of perillyl aldehyde markers; details: N. benthamiana leaves infiltrated with 400 µM perillyl alcohol, 4 h
T10 construct: gene POHDH; transient expression in Nicotiana benthamiana leaves (pB7WG2)
T10 sequence (A0A6G5RUH8 1-370): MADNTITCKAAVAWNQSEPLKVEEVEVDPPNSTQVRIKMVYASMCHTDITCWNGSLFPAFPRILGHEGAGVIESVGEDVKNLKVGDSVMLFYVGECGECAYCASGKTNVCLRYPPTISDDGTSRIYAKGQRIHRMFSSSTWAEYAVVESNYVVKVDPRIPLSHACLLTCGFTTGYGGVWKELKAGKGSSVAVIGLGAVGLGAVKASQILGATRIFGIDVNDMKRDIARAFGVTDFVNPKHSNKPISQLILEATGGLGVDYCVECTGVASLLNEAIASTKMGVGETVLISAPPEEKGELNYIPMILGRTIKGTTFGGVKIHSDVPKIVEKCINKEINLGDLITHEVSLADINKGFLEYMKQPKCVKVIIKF

in vitro terpene synthase assay, GC-MS [1]: a linalool synthase SdLiS
in vitro terpene synthase assay, GC-MS [2]: a sabinene synthase SdSaS
in vitro terpene synthase assay, GC-MS [3]: an α-pinene/camphene synthase SdPCS
in vitro terpene synthase assay, GC-MS [4]: a eucalyptol synthase SdEuS
SMILES: CC(C)=CCC/C(C)=C/COP(=O)(O)OP(=O)(O)O [geranyl diphosphate]
in vitro terpene synthase assay, GC-MS [5]: characterized by in vitro assays, including a β-pinene synthase SdPS

SMILES: C=C(C)[C@@H]1CC=C(C)CC1 [limonene]
GC-MS of perillyl alcohol in culture extract [6]: indicating that limonene is indeed used as a substrate

SMILES: C=C(C)[C@@H]1CC=C(C(=O)O)CC1 [perillic acid]
GC-MS of methyl ester product [7]: Cell-free extracts were tested with BA, SA, and PA as substrates, and SAM as methyl donor
headspace GC-MS of methylperillate [8]: only SdOMT4 and SdOMT9 showed minor MePA formation
headspace GC-MS of methylperillate [9]: only SdOMT4 and SdOMT9 showed minor MePA formation

LC-MS of perillyl aldehyde markers [10]: SdPOHDH converted POH to PAldH
SMILES: C=C(C)[C@@H]1CC=C(CO)CC1 [perillyl alcohol]

SMILES: O=C(O)c1ccccc1O [salicylic acid]
GC-MS of methyl ester product [7]: Methylated products were detected for all three substrates
